This note sets out measurements from patent publication US6303596A, “Use of taurolidine for treatment of leukemias” (priority 2000, dated 2001).

Holding throughout (format): cell-based, human
The test system of data set [1] is Lymphocytes. The data set can be described thus: TUNEL flow cytometry, lymphocytes in PBMC, culture medium. As to conditions: 6 h. How it is done:
FIG. 14A and FIG. 14B are terminal deoxytransferase-mediated deoxyuridine-triphosphate-biotin nick end labeling assay (TUNEL) analyses of control cells and taurolidine-treated PBMC, respectively. Cells were incubated with 100 μg/ml taurolidine for six hours and processed for TUNEL analysis as given below. Parallel samples were stained with FITC-conjugated anti-CD14 and propidium iodide (PI) as described below. Ten thousand events were recorded per sample. TUNEL signal (x-axis) is a measure of DNA fragmentation, which FSC (y-axis) is related to cell size. TUNEL-negative lymphocytes are bounded by the rectangle R1, while TUNEL-negative monocytes (CD14 positive cells) are bounded by the rectangle R2. The vertical line indicates demarcation between TUNEL-negative and TUNEL-positive cells. There were minimal numbers of PI-positive cells in the six hour samples (see Table IV).
(§1) In the second method, DNA fragmentation was detected via TUNEL assay according to the manufacturer's instructions. With this methodology, 2×10^6 cells were fixed with 2% paraformaldehyde, permeabilized with 0.1% Triton X-100/0.1% citrate, incubated at 37° C. with terminal deoxynucleotidyl transferase and FITC-dUTP, rinsed and analyzed by flow cytometry. Enhanced FITC signal indicates apoptosis-specific DNA fragmentation. Gavriali, et al, "Identification of programmed cell death in situ via specific labeling of nuclear DNA fragmentation," J Cell Biol 119:493 (1992). Parallel aliquots of unfixed cells were treated with PI and FITC-conjugated anti-CD14 and analyzed by flow cytometry, in order to identify cells with permeable cell membranes (since PI binds to DNA but is excluded from cells with intact plasma membranes) and also to determine the cell-specificity of the apoptotic signal.
A Becton-Dickinson FACSCalibur instrument was used for flow cytometric analysis of cells. Assessment of cell diameter (forward scatter; FCS) and granularity (side scatter; SSC).was carried out on unfixed cells. Discrimination between lymphocytes and monocytes was made possible by their characteristic differences in FSC and SSC, and confirmed by staining monocytes with FITC-labeled anti-CD14 antibodies and lymphocytes with a combination of FITC-conjugated anti-CD3 and PE-conjugated anti-CD19. After incubation with taurolidine (with or without concomitant LPS treatment), cells were rinsed twice in phosphate-buffered saline containing 0.1% bovine serum albumin (PBSA) and 1×10^6 cells were resuspended in 0.1 ml PBSA. After 5 μl FITC-conjugated anti-CD14 was added, cells were incubated in the dark on ice for 15 minutes and then centrifuged at 250×g. Cells were resuspended in 500 μl PBSA containing 5 μg/ml PI and subjected to flow cytometry.
Consequently, TUNEL analysis was performed on PBMC at 3, 6, or 24 hours after treatment with 25 to 100 μg/ml taurolidine. Aliquots of harvested cells were also labeled with FITC-conjugated anti-CD14 antibodies and PI, which allowed identification of monocytes (CD14-positive cells) and cells with damaged cell membranes (PI-positive cells). […] Thus, nearly 75% of the monocytes were TUNEL-positive following treatment with 100 μg/ml taurolidine for six hours. Confirmation that the TUNEL-positive cells were monocytes was obtained by staining with FITC-conjugated anti-CD14.
^a Analysis by flow cytometry after staining cells with FITC-conjugated
anti-CD14 and PI, and processing for TUNEL. Data are mean ± SD of two
(§2) ^b Percent of cells present in the TUNEL-negative region in control
Background: A flow cytometer gives signals particle by particle.

In data set [2] the test system is Lymphocytes. The experiment in a line: tissue or blood. As to conditions: for induction of apoptosis in lymphocytes: whole blood. How it is done: (§3) FIGS. 15A, 15B, and 15C depict TUNEL analysis of PBMC treated with taurolidine in whole blood, for control cells, taurolidine-treated cells, and anisomycin-treated cells, respectively . Cells were incubated with 500 μg/ml taurolidine for 4 hours, resuspended in fresh medium, incubated for two hours further and processed for TUNEL analysis. Parallel samples were stained with FITC-conjugated anti-CD14 and PI as described herein. Ten thousand events were recorded per sample. TUNEL signal (x -axis) is a measure of DNA fragmentation, while FSC (y-axis) is related to cell size. TUNEL-negative lymphocytes are bounded by rectangle R 1, while TUNEL-negative monocytes (CD 14 positive cells) are bounded by rectangle R2. R3 bounds the TUNEL-positive population of cells. There were minimal numbers of PI-positive cells in 6 hour samples (see Table VI).
as §1
(§4) Taurolidine at 100 μg/ml induced apoptosis of approximately 75% of purified peripheral blood monocytes when these cells were incubated in culture medium. However, in order to more closely mimic the milieu of leukocytes in vivo, induction of apoptosis in PBMC by taurolidine was studied in whole blood (anticoagulated with heparin). As before, apoptosis was quantitated by measuring the loss of monocytes from a TUTNEL-negative (no DNA fragmentation), CD 14 positive population of cells which was concomitant with the appearance of a TUNEL-positive population of cells. Treatment of PBMC in whole blood resulted
(§5) in a shift of the taurolidine dose-response curve. […] As a positive control for induction of apoptosis, some cells were treated with anisomycin, a protein synthesis inhibitor known to induce apoptosis in monocytes.
(§6) ^a Analysis by flow cytometry after staining cells with PI and
(§7) processing for TUNEL. Data are mean ± SD of 2 experiments.
as §2

The subject of the next data set is Monocytes. The experiment in a line: tissue or blood. How it is done:
as §3, §1, §4, §5, §6, §7, §2

Where [3] appears, read: Homo sapiens, Lymphocyte, 6 h, read-out: % TUNEL-negative.
Setting [4] is: Homo sapiens, Monocyte, 6 h, read-out: % TUNEL-negative.

On to `O=S1(=O)CCN(CN2CCS(=O)(=O)NC2)CN1` [taurolidine, 4,4'-methylenebis(perhydro-1,2,4-thiadiazin 1,1-dioxide)], for which, in the data set with Lymphocytes [1] (Homo sapiens, Lymphocyte, lymphocytes, 25 μg/ml, percent of control, read-out: % TUNEL-Negative), the viability at 25 µg/mL was determined as 100 ± 7%. Moreover, the viability at 50 µg/mL with Lymphocytes [1] (Homo sapiens, Lymphocyte, lymphocytes, 50 μg/ml, percent of control, read-out: % TUNEL-Negative) came out at 99.8 ± 3.4%. Also, the viability at 100 µg/mL in the data set on Lymphocytes [1] (Homo sapiens, Lymphocyte, lymphocytes, 100 μg/ml, percent of control, read-out: % TUNEL-Negative) worked out at 102 ± 3.1%. Further, in the data set on Lymphocytes [1] (lymphocytes, up to 100 μg/ml taurolidine), the “cells remaining TUNEL-negative” value is reported as about 100%. For the same molecule, the apoptosis in lymphocytes entry in the data set with Lymphocytes [1] (up to 100 μg/ml taurolidine, culture medium) is listed as “did not induce detectable apoptosis”. The viability at 200 µg/mL with Lymphocytes [2] (setting [3]) was found to be 92.7 ± 6%; in the data set on Monocytes (setting [4]), 117 ± 11.2%. Further, the viability at 500 µg/mL was 91.8 ± 6.9% in the data set with Lymphocytes [2] (setting [3]) and 27.9 ± 12% in the data set on Monocytes (setting [4]). The “induction of apoptosis in lymphocytes” value was “no evidence for a significant effect” in the data set on Lymphocytes [2] and “does not induce a significant amount of apoptosis” with Lymphocytes [2] (taurolidine up to 500 μg/ml). For the same molecule, in the data set on Monocytes (Homo sapiens, Monocyte, read-out: loss of TUNEL-negative monocytes), the cytotoxicity at 500 µg/mL was 70%. In addition, the “induction of apoptosis in whole blood” value in the data set with Monocytes (up to 200 μg/ml taurolidine) was “did not induce significant apoptosis”. The “effective concentration in whole blood relative to culture medium” value with Monocytes (whole blood versus purified PBMC in culture medium) is 5 times.
